Laboratory results reported in PMC7942396, “Drug Repurposing Screen for Compounds Inhibiting the Cytopathic Effect of SARS-CoV-2” (Frontiers in Pharmacology, 2021).
Like-named read-outs stand apart in the source and are kept apart here. Where a SMILES comes first, the peptide text is derived from it. [ ]: non-standard residue; d: D form. Nle = CCCC[C@H](N)C(=O)O

How the values were obtained:
[1] = tested on: SARS-CoV-2 (USA_WA1/2020); test: microbe, parasite or virus in culture; assay type: cell-based; details: for EC50: read-out: CPE EC50
[2] = SARS-CoV-2 CPE assay, Vero E6 cells, efficacy
[3] = cytotoxicity counter-assay, Vero E6 cells without virus
[4] = read-out: Cytotox CC50, cytotoxicity counter-assay, Vero E6 cells without virus
[5] = SARS-CoV-2 CPE assay, Vero E6 cells
[6] = SARS-CoV-2 CPE assay, Vero E6 cells, confirmed anti-SARS-CoV-2 compounds
[7] = […], DMSO 0%, no-virus control 100%, hit confirmation
[8] = Vero E6 cells without virus, 72 h

Compound | CPE % Efficacy [1, 2] | % Cytotox (Vero E6 cells; [3]) | CC50 (Vero E6 cells; [4]) | EC50 [1, 6] | further results
CN1CCN(S(=O)(=O)c2ccc(-c3cnc(N)c(C(=O)Nc4cccnc4)n3)cc2)CC1 [AZD-2858] | 80.0% | 41.0% | 12.6 µM |  | 
Cl.Cl.Fc1ccc(-c2nc(C3CCNCC3)sc2-c2ccnc(NC3CC3)n2)cc1 [DBM 1285 dihydrochloride] |  | 61.3% | 11.2 µM |  | CPE % Efficacy [1, 5]: 56.1%; EC50 [1, 5]: 12.6 µM
CS(=O)(=O)O.Cc1ncc(NC(=O)c2ccc(CN3CCN(C)CC3)c(C(F)(F)F)c2)cc1Nc1nccc(-c2cccnc2)n1 [Flumatinib mesylate] |  | 11.1% | 4.47 µM |  | CPE % Efficacy [1, 5]: 134.3%; EC50 [1, 5]: 12.6 µM
CCN(CC)Cc1cccc(/C=C/c2nc3ccc(F)cc3c(=O)n2-c2ccccc2Cl)n1.Cl [CP 465022 hydrochloride] | 77.3% | 47.9% | 12.6 µM | 10 µM | 
COc1cccc([C@@H](C)NCCCc2ccccc2Cl)c1 [NPS-R568] | 78.0% | 15.8% | 12.6 µM | 11.2 µM | 
Cc1c(C(=O)Nc2cccc(C(F)(F)F)c2)cc(-c2ccccc2)n1CCCN1CCOCC1 [HC-067047] | 64.2% | 45.7% |  | 10 µM | 
CCCC[C@@H](C=O)NC(=O)[C@H](CC(C)C)NC(=O)[C@H](CC(C)C)NC(C)=O [Calpain Inhibitor I, ALLN, reference compound] (Ac-Leu-Leu-[Nle]-aldehyde) | 72.0% | 115.5% | 1.13 µM | 0.0226 µM | CPE % Efficacy [1, 7]: 111.1%; EC50 [1]: 2 µM; % Cytotox (Vero E6 cells; [8]): <30%
CCC[C@@H](NC(=O)N1C(=O)C(CC)(CC)[C@@H]1Oc1ccc(C(=O)N2CCN(C)CC2)cc1)c1ccc2c(c1)OCO2 [DMP 777, reference compound] |  |  |  |  | CPE % Efficacy [1, 7]: 92.5%; EC50 [1]: 10 µM; % Cytotox (Vero E6 cells; [8]): <30%
CC1(C)CN2C(CSC(=NC3CCCCC3)NC3CCCCC3)=CSC2=N1.Cl.Cl [IT1t dihydrochloride, reference compound] |  |  |  |  | CPE % Efficacy [1, 7]: 96.3%; EC50 [1]: 3.5 µM; % Cytotox (Vero E6 cells; [8]): <30%
Cc1nnc(-c2ccc(-c3ccc(C(=O)Nc4ccc(O)c(N5CCN(C)CC5)c4)cc3)c(C)c2)o1 [GMC 2-113, reference compound] |  |  |  |  | CPE % Efficacy [1, 7]: 129.7%; EC50 [1]: 10 µM; % Cytotox (Vero E6 cells; [8]): <30%
COc1cccc(CCc2ccccc2OCC(CN(C)C)OC(=O)CCC(=O)O)c1.Cl (stereo not shown) [Sarpogrelate hydrochloride] | 30.1% | 21.2% | 15.8 µM | 11.2 µM | 
Br.O=C(CN1C2=NCCN2c2ccccc21)c1ccc(-c2ccccc2)cc1 [CCT 031374 hydrobromide] | 63.4% | 33.8% | 12.6 µM | 7.94 µM | 
Cc1nc2ccc(Oc3ccc(F)cc3)cc2c(=O)n1C[C@H]1CCCN(C(C)C)C1 [YIL 781] |  | 0.0% |  |  | CPE % Efficacy [1, 5]: 53.5%; EC50 [1, 5]: 11.2 µM
C/C=C(\C)C(=O)OC1C(C)C2(O)C3C=C(C)C(=O)C3CC(CO)=CC2C2C(C)(C)C12OC(C)=O (stereo not shown) [NCGC00380717] | 67.0% | 9.9% | 0.35 µM | 0.78 µM | 
COc1ccc(-c2cc(C(O)C3CCCCN3)c3ccccc3n2)cc1.Cl.Cl (stereo not shown) [NSC-23925] | 40.3% | 49.3% | 10 µM | 5.62 µM | 
CS(=O)(=O)NCC1CCC(Nc2nc3c(s2)CCSc2ccccc2-3)CC1 (stereo not shown) [LU AA33810] |  | 0.0% |  |  | CPE % Efficacy [1, 5]: 48.3%; EC50 [1, 5]: 12.6 µM
Cn1nnnc1Sc1ncnc2scc(-c3cccc(S(C)(=O)=O)c3)c12 [NCGC00182390] | 57.8% | 63.9% | 8.91 µM | 4.47 µM | 
O=C(CCn1cnc2onc(-c3ccc(F)cc3)c2c1=O)Nc1cccc(C(F)(F)F)c1 [NCGC00126519] | 64.8% | 65.0% | 10 µM | 11.2 µM | 

Compound | CPE % Efficacy [1, 2] | % Cytotox (Vero E6 cells; [3]) | CC50 (Vero E6 cells; [4]) | EC50 [1, 6] | further results
CN(C)CC(=O)N1CCC(c2ccc(NC(=O)c3nc(C#N)c[nH]3)c(C3=CCCCC3)c2)CC1 [JNJ-28312141] |  | 60.9% | 12.6 µM |  | CPE % Efficacy [1, 5]: 37.8%; EC50 [1, 5]: 14.1 µM
CCOc1ccc(-c2nc(-c3cccc4c3CCC4NCCO)no2)cc1OCC.Cl (stereo not shown) [CYM 5442 hydrochloride] | 134.3% | 0.0% |  | 11.2 µM | 
COc1ccc(C2CC(c3ccccc3)=NN2c2ccc(S(N)(=O)=O)cc2)cc1 (stereo not shown) [ML-141] | 65.2% | 23.8% |  | 8.91 µM | 
Nc1ncnc2c1c(-c1cccc(OCc3ccccc3)c1)cn2C1CC(CN2CCCC2)C1 (stereo not shown) [ADW-742] | 55.7% | 106.8% | 12.6 µM | 7.94 µM | 
CCCCCCCCCCCCCCCc1cccc(O)c1C(=O)O [Anacardic Acid] | 89.6% | 72.9% |  | 3.98 µM | 
NC(=O)c1cccc(-c2cc(Nc3ccc(OC(F)(F)F)cc3)ncn2)c1 [GNF-2] |  | 0.0% |  |  | CPE % Efficacy [1, 5]: 63.4%; EC50 [1, 5]: 11.2 µM
Cl.O=C1Nc2nc(-c3c(O)cccc3OCC3CC3)cc([C@@H]3CCCNC3)c2CO1 [Bay-65-1942 hydrochloride] |  | 23.5% | 11.2 µM |  | CPE % Efficacy [1, 5]: 53.9%; EC50 [1, 5]: 11.2 µM
C[C@@H]1O[C@@H](O[C@H]2[C@H](OC(=O)[C@]34CCC(C)(C)C[C@H]3C3=CCC5[C@@]6(C)CC[C@H](O[C@@H]7O[C@H](CO[C@@H]8OC[C@H](O)[C@H](O)[C@H]8O)[C@@H](O)[C@H](O)[C@H]7O)C(C)(C)C6CC[C@@]5(C)[C@]3(C)C[C@H]4O)OC[C@@H](O)[C@@H]2O)[C@H](O)[C@H](O)[C@H]1O[C@@H]1OC[C@H](O)[C@H](O[C@@H]2OC[C@@H](O)[C@H](O)[C@H]2O)[C@H]1O (stereo partly shown) [NCGC00384864] | 46.4% | 58.6% | 1.91 µM | 0.6 µM | 
CC(C)c1onc(-c2c(Cl)cccc2Cl)c1COc1ccc(/C=C/c2cccc(C(=O)O)c2)c(Cl)c1 [GW-4064X] |  | 60.4% |  |  | CPE % Efficacy [1, 5]: 73.5%; EC50 [1, 5]: 12.6 µM
OCCCNc1cc(-c2ccnc(Nc3cccc(Cl)c3)n2)ccn1 [CGP-60474] |  |  |  |  | CPE % Efficacy [1]: 104.5%; EC50 [1]: 6.31 µM; % Cytotox (Vero E6 cells): 61.3%; CC50 (Vero E6 cells): 0.11 µM
CN1CN(c2ccccc2)C2(CCN(CCCC(=O)c3ccc(F)cc3)CC2)C1=O.Cl [N-Methylspiperone hydrochloride, reference compound] |  |  |  |  | CPE % Efficacy [1, 7]: 80.0%; EC50 [1]: 4.5 µM; % Cytotox (Vero E6 cells; [8]): <30%
CCc1ccccc1OC[C@@H](O)CN[C@H]1CCCc2ccccc21.Cl [SR 59230A hydrochloride] |  | 13.9% | 17.8 µM |  | CPE % Efficacy [1, 5]: 108.4%; EC50 [1, 5]: 11.2 µM
NC(=O)c1ccc2nc(-c3ccc(Oc4ccc(Cl)cc4)cc3)[nH]c2c1 [BML-277] | 73.6% | 33.9% |  |  | 
CC(C)(C)Cn1c(N)nc2ccc(-c3[nH]c(C(C)(C)C)nc3-c3ccc(F)cc3)nc21 [LY-2228820 (ralimetinib)] | 85.9% | 78.9% | 12.6 µM | 1.58 µM | 
CCCOC(C(=O)OC1CCN(C)CC1)(c1ccccc1)c1ccccc1.Cl [Propiverine hydrochloride] | 44.6% | 0.0% |  | 11.2 µM | 
C(=N\Nc1nc(Nc2ccccc2)nc(N2CCOCC2)n1)/c1c[nH]c2ccccc12 [MLS000543798] | 87.4% | 33.6% | 0.45 µM | 0.11 µM | 
COc1ccccc1Nc1nc(-c2sc(NC(C)=O)nc2C)cs1 [JNJ0966] | 38.6% | 61.5% | 11.2 µM | 11.2 µM | 
